In the supplement of paper PMC10307832:

Experiments:
Test in all cases: relative viability (nuclei count vs DMSO), 5 days (fraction); higher = more cells survive
Gemcitabine + Pemetrexed = compound: Nc1ccn([C@@H]2O[C@H](CO)[C@@H](O)C2(F)F)c(=O)n1 [Gemcitabine] + Nc1nc2[nH]cc(CCc3ccc(C(=O)N[C@@H](CCC(=O)O)C(=O)O)cc3)c2c(=O)[nH]1 [Pemetrexed] (partner 0.2 µM)
Method in brief: (§1)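 One day after seeding in 1536-well plates, lung cancer cell lines were dosed by pin tool. Dosing was either single-drug or a fixed anchor-drug dose plus five library-drug doses (not always all listed) in √10 steps. After 5 days, nuclei were stained in one fix-and-stain step and counted on 4× images, and relative viability is the nuclei count of treated wells over that of vehicle wells, given as the median of duplicate plates.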

Gemcitabine + Alpelisib = compound: Nc1ccn([C@@H]2O[C@H](CO)[C@@H](O)C2(F)F)c(=O)n1 [Gemcitabine] + Cc1nc(NC(=O)N2CCC[C@H]2C(N)=O)sc1-c1ccnc(C(C)(C)C(F)(F)F)c1 [Alpelisib] (partner 2 µM)
Method in brief: as §1

Gemcitabine + Foretinib = compound: Nc1ccn([C@@H]2O[C@H](CO)[C@@H](O)C2(F)F)c(=O)n1 [Gemcitabine] + COc1cc2c(Oc3ccc(NC(=O)C4(C(=O)Nc5ccc(F)cc5)CC4)cc3F)ccnc2cc1OCCCN1CCOCC1 [Foretinib] (partner 0.25 µM)
Method in brief: as §1

Gemcitabine + Olaparib = compound: Nc1ccn([C@@H]2O[C@H](CO)[C@@H](O)C2(F)F)c(=O)n1 [Gemcitabine] + O=C(c1cc(Cc2n[nH]c(=O)c3ccccc23)ccc1F)N1CCN(C(=O)C2CC2)CC1 [Olaparib] (partner 8 µM)
Method in brief: as §1

Cell Line	relative viability (Gemcitabine + Pemetrexed; first compound 0.001 µM)	relative viability (Gemcitabine + Pemetrexed; first compound 0.003162 µM)	relative viability (Gemcitabine + Pemetrexed; first compound 0.01 µM)	relative viability (Gemcitabine + Pemetrexed; first compound 0.03162 µM)	relative viability (Gemcitabine + Pemetrexed; first compound 0.1 µM)	relative viability (Gemcitabine + Alpelisib; first compound 0.001 µM)	relative viability (Gemcitabine + Alpelisib; first compound 0.003162 µM)	relative viability (Gemcitabine + Alpelisib; first compound 0.01 µM)	relative viability (Gemcitabine + Alpelisib; first compound 0.03162 µM)	relative viability (Gemcitabine + Alpelisib; first compound 0.1 µM)	relative viability (Gemcitabine + Foretinib; first compound 0.001 µM)	relative viability (Gemcitabine + Foretinib; first compound 0.003162 µM)	relative viability (Gemcitabine + Foretinib; first compound 0.01 µM)	relative viability (Gemcitabine + Foretinib; first compound 0.03162 µM)	relative viability (Gemcitabine + Foretinib; first compound 0.1 µM)	relative viability (Gemcitabine + Olaparib; first compound 0.001 µM)	relative viability (Gemcitabine + Olaparib; first compound 0.003162 µM)	relative viability (Gemcitabine + Olaparib; first compound 0.01 µM)	relative viability (Gemcitabine + Olaparib; first compound 0.03162 µM)	relative viability (Gemcitabine + Olaparib; first compound 0.1 µM)
NCI-H1975	0.286	0.29	0.306	0.178	0.173	0.795	0.792	0.314	0.18	0.157	1.03	0.962	0.555	0.156	0.138	0.755	0.78	0.433	0.179	0.139
UMC-11	0.814	0.769	0.747	0.676	0.403	1.15	0.931	0.885	0.792	0.239	1.17	1.1	0.948	0.764	0.391	0.41	0.496	0.356	0.38	0.247
A-427	0.986	0.93	0.851	0.351	0.249	1.03	0.99	0.764	0.169	0.0914	1.09	0.948	0.598	0.181	0.155	0.756	0.745	0.481	0.259	0.199
LCLC-97TM1	0.174	0.19	0.0994	0.0729	0.0912	0.228	0.131	0.115	0.107	0.128	0.886	0.832	0.597	0.136	0.118	0.331	0.178	0.0884	0.0632	0.0703
HCC-15	0.224	0.226	0.226	0.229	0.109	1.01	0.893	0.766	0.145	0.0627	1.12	1.07	1.01	0.152	0.0815	0.831	0.73	0.625	0.175	0.103
NCI-H647	0.211	0.178	0.072	0.0569	0.0589	1.08	0.174	0.0715	0.0975	0.0551	1.06	0.279	0.0991	0.0846	0.0592	0.574	0.103	0.0533	0.0536	0.0389
SW 1573	0.876	0.732	0.0969	0.0574	0.0459	0.749	0.592	0.295	0.0967	0.0846	1.03	0.776	0.32	0.131	0.0835	0.413	0.295	0.0949	0.102	0.0546
NCI-H1651	0.561	0.575	0.584	0.362	0.0991	0.923	0.967	0.889	0.159	0.0819	0.805	0.771	0.596	0.137	0.0964	0.182	0.193	0.187	0.138	0.075
NCI-H2023	0.265	0.282	0.152	0.0833	0.0801	0.703	0.542	0.415	0.214	0.066	0.966	0.643	0.586	0.124	0.0582	0.505	0.414	0.236	0.161	0.0679
COR-L 105	1.32	1.01	0.895	0.37	0.282	1.22	0.95	0.526	0.261	0.21	1.39	0.884	1.01	0.371	0.27	0.692	0.774	0.625	0.357	0.282
NCI-H1734	0.408	0.377	0.197	0.139	0.136	0.567	0.627	0.213	0.153	0.0967	0.781	0.653	0.287	0.131	0.126	0.535	0.348	0.183	0.111	0.102
NCI-H3122	0.196	0.206	0.191	0.138	0.105	0.824	0.774	0.627	0.234	0.165	0.94	0.959	0.89	0.123	0.0966	0.622	0.625	0.396	0.136	0.107
CAL-12T	1.38	1.07	1.04	0.286	0.156	1.6	0.917	0.84	0.285	0.164	1.11	1.03	0.982	0.707	0.182	0.714	0.641	0.551	0.228	0.201
HCC-78	0.92	0.879	0.895	0.9	0.896	0.278	0.241	0.12	0.157	0.13	0.502	0.44	0.416	0.267	0.241	0.715	0.335	0.213	0.21	0.181
NCI-H2085	0.94	0.882	0.827	0.772	0.406	0.892	0.959	0.765	0.57	0.429	0.897	0.889	0.598	0.431	0.241	0.756	0.786	0.699	0.597	0.426
